Assay results taken from the NIST ThermoML archive (doi:10.1021/je049930e).

Test: wn = mass fraction of the nth substance listed
Details: Liquid, Vibrating tube method

CC(=O)c1ccccc1 [acetophenone] + CCCCCCCCO
mass density [kg/m3]
Details	100 kPa	10000 kPa	15000 kPa	20000 kPa	25000 kPa	30000 kPa	35000 kPa	40000 kPa	45000 kPa	50000 kPa
298.15 K, w2 = 0.1075	996	1001.7	1004.5	1007.2	1009.8	1012.3	1014.9	1017.3	1019.7	1022.1
298.15 K, w2 = 0.2132	971.2	977	979.8	982.5	985.2	987.7	990.3	992.8	995.1	997.5
298.15 K, w2 = 0.3172	947.9	953.8	956.6	959.4	962	964.7	967.2	969.7	972.2	974.6
298.15 K, w2 = 0.4195	926.2	932.2	935.1	937.9	940.6	943.2	945.8	948.3	950.7	953.2
298.15 K, w2 = 0.5201	905.9	911.9	914.9	917.6	920.3	923	925.6	928.1	930.6	933
298.15 K, w2 = 0.6192	886.6	892.7	895.6	898.4	901.2	903.8	906.4	909	911.4	913.8
298.15 K, w2 = 0.7166	868.6	874.7	877.6	880.4	883.2	885.9	888.5	891	893.5	895.9
298.15 K, w2 = 0.8126	851.8	857.9	860.9	863.7	866.5	869.2	871.8	874.2	876.8	879.2
298.15 K, w2 = 0.907	836	842.1	845.1	848	850.7	853.4	855.9	858.5	861	863.3
318.15 K, w2 = 0.1075	978.9	985.3	988.3	991.3	994.1	997	999.5	1002.2	1004.8	1007.3
318.15 K, w2 = 0.2132	954.5	960.9	964	967	969.9	972.7	975.4	978	980.7	983.2
318.15 K, w2 = 0.3172	931.3	937.8	940.9	943.9	946.9	949.7	952.4	955.1	957.7	960.3
318.15 K, w2 = 0.4195	910	916.6	919.7	922.8	925.7	928.6	931.4	934	936.8	939.3
318.15 K, w2 = 0.5201	890	896.7	899.8	902.9	905.9	908.7	911.5	914.2	916.9	919.5
318.15 K, w2 = 0.6192	871.1	877.8	881.1	884.1	887.1	890	892.7	895.4	898.1	900.7
318.15 K, w2 = 0.7166	853.4	860.2	863.3	866.4	869.5	872.4	875.2	877.9	880.5	883.1
318.15 K, w2 = 0.8126	837	843.9	847	850.2	853.2	856	858.9	861.6	864.3	866.8
318.15 K, w2 = 0.907	821.6	828.3	831.6	834.7	837.7	840.6	843.4	846.1	848.8	851.3
348.15 K, w2 = 0.1075	952.5	959.7	963.2	966.6	969.9	973.1	976.1	979.2	982	984.8
348.15 K, w2 = 0.2132	928.4	935.9	939.4	942.8	946.1	949.2	952.3	955.3	958.2	961
348.15 K, w2 = 0.3172	905.7	913.1	916.7	920.1	923.5	926.7	929.8	932.9	935.9	938.6
348.15 K, w2 = 0.4195	884.7	892.4	896	899.5	902.9	906.2	909.3	912.3	915.3	918.2
348.15 K, w2 = 0.5201	865.1	872.8	876.5	880	883.4	886.6	889.6	892.8	895.9	898.7
348.15 K, w2 = 0.6192	846.9	854.6	858.3	861.8	865.3	868.5	871.7	874.8	877.8	880.7
348.15 K, w2 = 0.7166	829.6	837.4	841.1	844.6	848	851.3	854.5	857.6	860.5	863.4
348.15 K, w2 = 0.8126	813.7	821.5	825.2	828.7	832.1	835.4	838.6	841.7	844.6	847.5
348.15 K, w2 = 0.907	798.4	806.4	810.2	813.8	817.2	820.4	823.6	826.7	829.7	832.5
